Experiment [1] concerns ERK. Kind of experiment: p-ERK in hippocampal lysates of naive mice after i.v. peptide. In kind it is in vivo, mouse. The settings on record: 10 mg/kg i.v., 3 hr. As for the experimental part:
(§1) Animals were anesthetized with pentobarbital (200 mg/kg i.p.) and decapitated, and the head was quickly immersed in liquid nitrogen for 4 s to rapidly cool the brain. The hippocampi were rapidly dissected on ice and homogenized in RIPA buffer, incubated on ice for 15 min, and centrifuged at 200,000×g for 10 min at 4° C. The supernatant was collected and stored at −80° C. until further analysis. TrkB was immunoprecipitated using TrkB antibody (1:1000, Millipore) and the lysates were incubated with 100 μL of protein A-Sepharose beads (Roche) overnight in 4° C. The beads/immune complexes were pelleted in a microcentrifuge and then resuspended in RIPA buffer and this procedure was repeated two additional times before adding 2×SDS PAGE sample buffer and boiled. After SDS PAGE, the gels were probed with TrkB and PLCγ1 antibody (1:1000, Cell signaling). Western blotting was conducted as previously described (He et al., 2010). Cell lysate and hippocampal homogenate were probed with p-PLCγ1 (pY783), PLCγ1, p-Akt (pS473), Akt, p-ERK (p44/p42) and ERK (1:1000, Cell signaling). The immunoreactivity of individual bands on western blots was measured by ImageJ software (National Institutes of Health) and normalized to PLCγ1, Akt or ERK contents. Equivalent protein loading among samples was monitored by β-actin (1:10000; Sigma) levels. […]

Experiment [2] relates to PLCγ1. Briefly: p-PLCγ1 in brain of naive mice after intravenous peptide (western blot). In kind it is in vivo, mouse. The procedure: An important issue with respect to usefulness of Tat-pTRKBY816 is whether, following peripheral administration, the peptide can inhibit PLCγ1 activation in the brain in vivo. To test this idea, adult C57/B6 mice underwent tail vein injection of vehicle (normal saline [NS]) or Tat-scrambled-pTrkY816 or Tat-pTrkBY816 (10 mg/kg, 2 mice per group). Animals were sacrificed 3 hours post administration, the hippocampus dissected and homogenate prepared for western blotting. […] These findings support the assertion that the peptide passes through the blood brain barrier and inhibits PLCγ1 activation in vivo.
Animals were anesthetized with pentobarbital (200 mg/kg i.p.) and decapitated, and the head was quickly immersed in liquid nitrogen for 4 s to rapidly cool the brain. The hippocampi were rapidly dissected on ice and homogenized in RIPA buffer, incubated on ice for 15 min, and centrifuged at 200,000×g for 10 min at 4° C. The supernatant was collected and stored at −80° C. until further analysis. […] The immunoreactivity of individual bands on western blots was measured by ImageJ software (National Institutes of Health) and normalized to PLCγ1, Akt or ERK contents. Equivalent protein loading among samples was monitored by β-actin (1:10000; Sigma) levels. […]
Background: Immunoblotting shows a protein as a band on a membrane.

Experiment [3] has as its target T1, TrkB-PLCγ1 binding (Mus musculus, UniProt Q62077).
T1 construct: The hippocampi were rapidly dissected on ice and homogenized in RIPA buffer; from tissue; host or cells: hippocampus of naïve C57BL/6 mice
T1 sequence (Q62077 1-1302): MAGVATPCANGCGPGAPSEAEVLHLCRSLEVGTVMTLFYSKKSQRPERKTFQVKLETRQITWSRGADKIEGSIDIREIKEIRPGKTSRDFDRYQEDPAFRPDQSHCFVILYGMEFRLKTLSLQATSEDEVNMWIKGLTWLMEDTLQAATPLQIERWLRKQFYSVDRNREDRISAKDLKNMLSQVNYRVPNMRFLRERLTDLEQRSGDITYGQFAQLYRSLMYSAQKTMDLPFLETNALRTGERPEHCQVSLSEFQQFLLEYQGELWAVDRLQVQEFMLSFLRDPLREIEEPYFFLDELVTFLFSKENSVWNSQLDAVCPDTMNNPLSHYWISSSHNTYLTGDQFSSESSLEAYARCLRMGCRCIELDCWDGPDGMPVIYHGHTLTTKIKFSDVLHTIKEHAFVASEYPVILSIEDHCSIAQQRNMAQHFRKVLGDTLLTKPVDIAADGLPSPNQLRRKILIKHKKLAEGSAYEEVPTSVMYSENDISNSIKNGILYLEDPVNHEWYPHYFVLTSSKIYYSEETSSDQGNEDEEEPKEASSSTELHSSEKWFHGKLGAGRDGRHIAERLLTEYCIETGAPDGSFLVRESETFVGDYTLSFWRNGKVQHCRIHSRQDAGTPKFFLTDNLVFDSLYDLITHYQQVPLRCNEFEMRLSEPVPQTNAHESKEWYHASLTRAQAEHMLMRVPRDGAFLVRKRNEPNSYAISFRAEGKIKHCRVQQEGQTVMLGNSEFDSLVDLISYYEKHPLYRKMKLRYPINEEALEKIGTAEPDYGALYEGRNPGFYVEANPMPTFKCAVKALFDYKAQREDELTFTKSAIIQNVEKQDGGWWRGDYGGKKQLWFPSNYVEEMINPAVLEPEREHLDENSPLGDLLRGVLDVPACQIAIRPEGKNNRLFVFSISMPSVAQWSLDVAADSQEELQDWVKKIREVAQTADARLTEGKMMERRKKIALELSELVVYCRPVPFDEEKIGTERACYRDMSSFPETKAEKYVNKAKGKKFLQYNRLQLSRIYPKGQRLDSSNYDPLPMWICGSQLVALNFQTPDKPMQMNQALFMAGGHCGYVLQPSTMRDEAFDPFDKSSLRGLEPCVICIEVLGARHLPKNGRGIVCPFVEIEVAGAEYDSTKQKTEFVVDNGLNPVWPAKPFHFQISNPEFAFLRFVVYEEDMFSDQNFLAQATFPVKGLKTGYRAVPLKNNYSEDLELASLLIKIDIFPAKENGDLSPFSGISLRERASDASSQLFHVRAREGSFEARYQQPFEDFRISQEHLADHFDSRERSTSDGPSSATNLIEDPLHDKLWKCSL
Kind of experiment: Co-immunoprecipitation of TrkB and PLCγ1 from hippocampal homogenates after i.v. peptide. In kind it is in vivo. The settings on record: 10 mg/kg i.v., 3 hr, hippocampus, compared to Scr. As for the experimental part: as §1

The text below walks through data of US11129870B2, “Compositions and methods for uncoupling TrkB receptor from PLC gamma 1 for the treatment of epilepsy and anxiety-like disorder” (DUKE UNIVERSITY, priority 2010, dated 2021).

Where no end group is shown, it is not given here. [ ]: non-standard residue; d: D form. pY = N[C@@H](Cc1ccc(OP(=O)(O)O)cc1)C(=O)O

“YGRKKRRQRRR-LQNLAKASPVpYLDI (YGRKKRRQRRRLQNLAKASPV[pY]LDI) [pY816]”: the “p-ERK in hippocampal lysates” value in experiment [1] was “neither p-Akt nor p-ERK was affected”. The “reduction of p-PLCγ1 (pY783) immunoreactivity” value in experiment [2] (10 mg/kg i.v., 3 hr, hippocampal lysates, in comparison to Scr) was around 50%. Further, the “phospho-PLCγ1 in brain homogenate” value in experiment [2] (10 mg/kg tail vein, 3 hours post administration, vs saline or scrambled peptide) is “reduced the phosphor-PLCγ1”. In addition, the “co-immunoprecipitation of TrkB and PLCγ1” value in experiment [3] was “inhibited the co-immunoprecipitation of TrkB and PLCγ1”.
